Columns and labels:
[1] = test system: MCF10A cells; format: cell-based
[2] = test system: BT20 cells; format: cell-based, human
Protocol: (§1) B. MDA-MD-468 cells were transduced with an IPTG inducible shEGFR targeted against the 3′ UTR of EGFR. These cells were incubated with IPTG for the indicated number of days and lysates were generated to confirm knock down of EGFR. C. In tandem with B., cells were plated and incubated +/−IPTG for 2 days prior to drug treatment. […] After 5 days of IPTG and 3 days of peptide treatment viability was measured using an MTT assay.
To investigate rt-EGFR, the role of the Sorting Nexins to regulate EGFR trafficking to the lysosome for degradation was investigated. To determine if SNX1 domains could be therapeutically mimicked, three SNX1-based peptides were synthesized, each of which was generated in tandem with a Cell Penetrating Peptide domain (PTD-4) to allow for intracellular penetration^19 (SNX1.1, 1.2 and 1.3, FIG. 2A). The ability of each peptide to reduce cell survival in the triple negative breast cancer cell line BT20 was evaluated.
(§2) EGFR activity is known to promote the activity of other RTKs, including those in the EGFR family (HER2, HER3 and HER4) and the c-Met receptor (Puri and Salgia 2008; Linklater et al. 2016). Therefore, the ability of SNX1.3 to inhibit 2D migration was next evaluated, both in response to EGF as well as other migration-inducing ligands. […] Cells were plated on plastic and allowed to migrate into an artificial wound over 12 hours. […] To determine if this inhibitory effect was restricted to EGF-induced migration, the ability of SNX1.3 to impact neuregulin (NRG1) was also tested and hepatic growth factor (HGF)-induced migration. NRG is the ligand for HER3 and HER4, and HGF the ligand for the c-Met receptor, both of which are receptor tyrosine kinases. In addition, soluble hyaluronic acid (HA)-induced migration, the ligand for CD44, was also tested [a non-kinase membrane receptor that induces migration (Louderbough, Lopez, and Schroeder 2010)]. […] Note that all receptors undergo endocytosis, with the RTKs primarily undergoing clathrin-dependent endocytosis, while CD44 endocytosis is clathrin-independent (Dutta and Donaldson 2015).

[3] = test system: MDA-MB-468 cells; format: cell-based, human; details: MDA-MB-468, 3 days, MTT assay
Protocol: A. Peptide sequence alignment of modified and stabilized peptides (−) indicates conserved residues, (/) indicates a deleted residue. Modified residues used for staples are (S)-2-(((9H-flouren-9-yl) methoxy) caronylamino)-2-methyl-hept-6-enoic acid (5) and (R)-2-(((9H-flouren-9-yl) methoxy) caronylamino)-2-methyl-dec-9-enoic acid (8). PTD4=Protein Transduction Domain. Ac=acetylation of 5′ end and NH2=amidation of 3′ end. B. MDA-MB-468 cells were treated with 10 μM of the indicated peptide for 3 days. Cell viability was measured using an MTT assay. Vehicle control represents 100%. C. A predicted peptide structure of SNX1.3 was generated using SWISSMODEL with negative (blue) and positive (red) residues highlighted.
as §1
Predicted peptide structure including negatively (blue) and positively (red) charged residues was used to guide the modifications (FIG. 2C).

[4] = test system: BT20 cells; assay: 2D cell migration into an artificial wound, BT20 cells; format: cell-based, human
Protocol: Area migrated was measured with ImageJ.
as §2

[5] = test system: WAP-TGFα tumors; assay: Histology and protein lysate analysis of treated WAP-TGFα tumors; format: in vivo, mouse
Description: Mice were bred continuously to induce transgene expression and palpated weekly for tumor formation. […] A. Changes in tumor size from entry into study until end of study are shown for each individual tumor, (*) indicate tumors that entered the study at size greater than 500 mm^3, all other tumors entered the study at ˜100 mm^3. B. a Kaplan-Meier survival curve was generated showing when mice were sacrificed by either reaching tumor burden (2000 mm^3) or the end of the study (p=0.0002). C. Upon sacrifice tumors were harvested and fixed in 10% formalin and embedded in paraffin. Slides were stained with hematoxylin and eosin and imaged at 20×. D. Protein lysates were generated from tumors upon sacrifice and probed for the indicated proteins.
(§3) A. Tumors (n=6 each treatment) from WAP-TGF mice as described in FIG. 1 were embedded and analyzed by NanoString. […] C. Tumors were dissected, lysed, and analyzed for apoptosis by probing for cleaved PARP and PDL1 expression.
At the end of the study, mice were sacrificed and tissues were collected and fixed in 10% buffered formalin or homogenized in tissue lysis buffer. Tissues were sectioned and evaluated for changes to tissue morphology in response to peptide treatment (FIG. 3C). […] Representative tumors from the PARP-cleavage positive (cSNX1.3-treated) and negative (cPTD4-treated) are shown (FIG. 3C).
(§4) Due to the increased leukocyte infiltration identified by histology of cSNX1.3-treated WAP-TGFα mice, NanoString analysis was performed using a panel that identifies alterations in immune regulators through localized analysis of transcript expression (PanCancer IO 360 Panel). […] These include several immune/inflammatory genes (such as CD2, TLR, CD28, H2-M3, Ly6C1, cytokines, and chemokines) as well as genes that could impact the metastatic potential of the microenvironment (including collagen 11A1 and MM P12). NanoString bioinformatics analysis further identified that these changes could be due to an increase in Cytotoxic T lymphocytes (CTLs) in cSNX1.3-treated samples compared to PTD4 (FIG. 8B). […] Therefore, tumor lysates were prepared and evaluated for apoptosis and a loss of the negative immune checkpoint receptor PDL1 (FIG. 8C). […] These changes could indicate an alteration from an immune-suppressive to an immune-surveilling microenvironment.

[6] = test system: WAP-TGFα tumors; assay: NanoString analysis of WAP-TGFα tumors (PanCancer IO 360 Panel); format: in vivo, mouse; details: WAP-TGFα tumors, found by NanoString
Protocol: as §3
C. WAP-TGFα tumors treated with either SNX1.3 or cPTD4 were analyzed for NK cells using an anti-NKp46 antibody. Inset is 20×.
as §4

Row | Compound | impact on normal immortalized cells [1] | inhibition of cell survival, compared with Sapitinib ([2]; BT20, 3 days, MTT assay) | inhibition of cell survival, compared with Sapitinib [3] | soluble hyaluronic acid (HA)-induced migration (CD44) ([4]; BT20, 12 hours, ligand for CD44) | neuregulin (NRG1) induced migration ([4]; BT20, 12 hours, ligand for HER3 and HER4) | hepatic growth factor (HGF)-induced migration ([4]; BT20, 12 hours, ligand for c-Met receptor) | EGF induced migration ([4]; BT20 on plastic, 12 hours) | growth of BT20 cells ([2]; first screen of SNX1-based peptides) | impact on viability via MTT ([2]; in less than 24 hours, data not shown) | infiltration of cytotoxic T lymphocytes and neutrophils in tumors ([5]; compared to control mice) | overall PDL1 expression in tumors ([5]; tumor lysates) | secretion of IL33 [6]
1 | CNC(=O)CN1CCC(Oc2cc3c(Nc4cccc(Cl)c4F)ncnc3cc2OC)CC1 [Sapitinib, reference compound] | more effective at inhibiting cell growth in normal cells than in cancer cells | inhibited cell survival | inhibited cell survival | – | – | – | – | – | – | – | – | –
2 | YARAAARQARAKNHVIKYLETLLYSQQQLAKYWEAFL [SNX1.3] | – | – | – | did not block | inhibited migration | inhibited migration | no migration was observed | inhibits the growth | no impact on viability | increased infiltration | decrease | induced

From patent publication US20240166702A1, “COMPOSITIONS AND METHODS FOR TREATING BREAST CANCER” (Arizona Board of Regents on Behalf of The University of …, priority 2021, published 2024)
